Results published in patent US6635671B1, “Compounds which affect mRNA stability and uses therefor” (Novation Pharmaceuticals Inc., priority 1998, dated 2003).
Where two headings read alike, the source gives them in different places.

How the values were obtained:
[1] = tested on: THP-1 clone No. 63 (pGL2_Neo30; luciferase mRNA with three tandem AUUUA motifs of the IL-1β 3′UTR); test: Luciferase reporter gene assay, clone No. 63 (pGL2_Neo30, with mRNA instability sequence); assay type: cell-based, human; parameters: Luciferase reporter gene assay, luciferase activity: unit not given here; conditions: for Luciferase reporter gene assay, luciferase activity: clone 63; for inhibition at 1 µM: Homo sapiens, THP-1, clone No. 63
Excerpt: (§1) In order to obtain a vector for stable integration into THP-1 cells, a XhoI-SalI fragment of the neo resistant gene (expressing aminoglycoside 3′ phosphotransferase) derived from pMCIneo (Stratagene) is subcloned into the SalI site of pGL2Control (Promega). This resulting plasmid was called pGL2_Neo. A 30 bp fragment (containing three tandem AUUUA motifs, based on the IL-Iβ3′UTR sequence) obtained by annealing two complementary synthetic oligonucleotides (see FIG. 1) is subcloned into pGL2 Neo using the PflM1 restriction site.
(§2) The resulting vectors pGL2_Neo30 and pGL2_Neo are transfected into THP-1 cells by electroporation. 10^7 cells/ml in 1.3 mM KH2PO4, 7.36 m.M Na2HPO4, 2.44 mM KCl, 124 mm NaCl, 5 mM glucose, 9.6 μM MgCl2 and 16 μM CaCI2 pH 7.2 are transfected with 20 μg of DNA in a Bio-Rad Gene Pulser (250V, 690 μF and indefinite resistance) using a 0.4 cm cuvette. Cells are subsequently cultured in RPMI medium containing 10%FBS, 2mM L-Gln (L-glutamine), 50 μM 2mercaptoethanol and 600 μg/ml of G418 (geneticin). After transfection of pGL2_Neo30 and pGL2_Neo into THP-1 cells, stable cell lines are obtained by selection for G418 resistance and assayed for luciferase activity. One cell line of each transfection is chosen for further analysis; the pGL2_Neo30 cell line is referred to as clone No. 63 and the pGL2_Neo cell line as clone No. 53. No endogenous luciferase activity could be detected in normal THP-1 cells.
(§3) The transfected human monocytic leukemia cell lines, clones No. 53 and 63 are grown in RPMI medium supplemented with 110 U/ml penicillin, 100 μg/ml streptomycin, 2 mM L-Gln and 2 g/l NaHCO3. Heat-treated FBS (5%) is added before use. The cells are grown to a density of 5×10^5/ml and induced to differentiate with 100 U/ml (final concentration) γIFN. Three hours later, 10 μl of LPS (5 μg/ml final concentration) is added. This time point is designated time 0. Compounds are added at various times after LPS addition as indicated.
(§4) In order to adapt the system to the use of 96 well plates, cells are grown in Packard flat bottom white polystyrene microplates (Cat No.6005180) in RPMI medium lacking phenol red (AMIMED). Cells are plated at 5×10^4/well. After treatment of the cells, luciferase is measured using the Packard Luc Lite system (Cat. No.601691 1) according to the manufacturer's instructions in a final volume of 205 μl. Briefly, to a cell suspension of 5×10^5 cells/ml, γIFN (1000 U/ml Boehringer Mannheim No. 1050494) to a final concentration of 100 U/ml and 0.25% (v/v) Luc Lite Enhancer is added. After a 3 hour incubation LPS (50 μg/ml SIGMA L-8274) is added to give 5 μg/ml final concentration. The cells are then plated at 5×10^4/100 l/well into flat bottom white polystyrene microplates (Packard, Cat No. 6005180) and incubated for 16 hours. 5 μl of compound solution or control vehicle is then added and the cells are further incubated as indicated. 100 μl of luciferase substrate solution is added and the plates are covered with TopSeal-A press-on adhesive sealing film (Packard Cat.No. 6005185) before measuring luminescence with a Packard Top Count Scintillation Counter at 22° C. The luciferase signal is stable for at least 90 min.
(§5) The THP-1 cell lines, clone No. 63 (containing PGL2_Neo30) and clone No. 53 (containing pGL2-Control) are grown, differentiated and stimulated with γIFN and LPS identical to normal THP-1 cells. Radicicol analog A is added 16 hours after the addition of LPS and cell extracts are then taken 8 hours later or as indicated. Luciferase activity is inhibited by 1 μM radicicol analog A on average by 50%±17%, in some cases inhibition was as great as 93%, whereas up to 5×10^−6M of radical analog A has no effects on the control clone No. 53, FIG. 3 (solid bars indicate clone No. 53, open bars clone No. 63).
(§6) A number of radicicol analogues are tested for their activity in the reporter assay substantially as described in the previous Examples.

[2] = tested on: THP-1 clone No. 53 (pGL2_Neo / pGL2-Control); test: Luciferase reporter gene assay, control clone No. 53 (no instability sequence); assay type: cell-based, human; parameters: Luciferase reporter gene assay, luciferase activity: unit not given here; conditions: for Luciferase reporter gene assay, luciferase activity: clone 53
Excerpt: as §1, §2, §3, §4, §5, §6

[3] = tested on: TNF-α mRNA; conditions: THP-1 cells activated by IFN-γ and LPS; cited from earlier work
[4] = tested on: IL-1β mRNA; conditions: THP-1 cells activated by IFN-γ and LPS; cited from earlier work
[5] = tested on: IL-6 mRNA; conditions: THP-1 cells activated by IFN-γ and LPS; cited from earlier work
[6] = tested on: IL-1β; conditions: THP-1 cells activated by IFN-γ and LPS; cited from earlier work

| Effect on luciferase activity of control clone ([2]; clone No. 53, up to 5×10^−6M) | SMILES | Luciferase reporter gene assay, luciferase activity ([1]; 0.5 μM) | Luciferase reporter gene assay, luciferase activity ([1]; 1 μM) | Luciferase reporter gene assay, luciferase activity ([1]; 5 μM) | Luciferase reporter gene assay, luciferase activity ([2]; 0.5 μM) | Luciferase reporter gene assay, luciferase activity ([2]; 1 μM) | Luciferase reporter gene assay, luciferase activity ([2]; 5 μM) | Time of degradation of TNF-α mRNA to undetectable levels [3] [h] | Time of degradation of IL-1β mRNA to undetectable levels [4] [h] | inhibition at 1 µM ([1]; 1 μM, added 16 h after LPS, extracts 8 h later, read-out: Inhibition of luciferase activity, on average) [%] | inhibition at 1 µM ([1]; 1 μM, read-out: Inhibition of luciferase activity, greatest inhibition in some cases) [%] | Time of degradation of IL-6 mRNA to undetectable levels [5] [h] | Secretion of IL-1β [6] |
| --- | --- | --- | --- | --- | --- | --- | --- | --- | --- | --- | --- | --- | --- |
| – | C[C@@H]1C[C@H]2O[C@@H]2CCCCC(=O)Cc2c(Cl)c(O)cc(O)c2C(=O)O1 | 88 | 64 | 57 | 99 | 77 | 69 | – | – | – | – | – | – |
| – | COc1cc(O)c2c(c1OC)/C=C/C[C@H](O)[C@H](O)C(=O)/C=C\C[C@H](C)OC2=O [drawing 13] | 69 | 32 | 9 | 136 | 140 | 108 | – | – | – | – | – | – |
| – | C[C@@H]1C[C@H]2O[C@@H]2CCCCC(=O)Cc2cc(O)cc(O)c2C(=O)O1 | 80 | 66 | 61 | 83 | 81 | 70 | – | – | – | – | – | – |
| – | COc1cc(O)c2c(c1)/C=C/CC(O)C(O)C(=O)/C=C\CC(C)OC2=O (stereo not shown) | 97 | 88 | 87 | 114 | 105 | 107 | – | – | – | – | – | – |
| no effects | COc1cc(O)c2c(c1OC)/C=C/C[C@H](O)[C@H](O)C(=O)/C=C\C[C@H](C)OC2=O [radicicol analog A] | – | – | – | – | – | – | 5 to 8 | 5 to 8 | 50 | 93 | 5 to 8 | inhibited the secretion of IL-1β |
| – | COc1cc(O)c2c(c1OC)/C=C/C[C@H](O)[C@H](O)C(=O)/C=C/C[C@H](C)OC2=O | 96 | 94 | 7 | 97 | 91 | 55 | – | – | – | – | – | – |
| – | C[C@@H]1C[C@H]2O[C@@H]2/C=C\C=C\C(=O)Cc2c(Cl)c(O)cc(O)c2C(=O)O1 | 42 | 18 | 3 | 68 | 51 | 40 | – | – | – | – | – | – |
| – | COc1cc(O)c2c(c1)/C=C/CC(O)C(O)C(=O)CCCC(C)OC2=O (stereo not shown) | 107 | 93 | 70 | 103 | 122 | 104 | – | – | – | – | – | – |
